The test system of the data set is Influenza Ann Arbor virus. Put plainly: Chemoprophylaxis of Influenza Ann Arbor (A1) virus infection in mice. It is filed as in vivo, mouse. The following applies: oral.

“Also recorded” adds a separate entry of the source. Where a name gives a salt, the structure may show the parent alone.

Regarding `CN(C)N` [1,1-dimethylhydrazine], the “No. animals surviving after 6 days” value runs as follows: (total dose 30 pg) 5; (total dose 300 pg) 3; (total dose 3 ng) 3; (total dose 30 ng) 2; (total dose 300 ng) 3; (total dose 3 μg) 2. The “No. animals surviving after 6 days” value stood at 1 (total dose 30 μg), 3 (total dose 300 μg) and 2 (total dose 3 mg). Also, the Survivors is on record as 0 (total dose 30 pg); 0 (total dose 300 pg); 1 (total dose 3 ng); 0 (total dose 30 ng); 0 (total dose 300 ng); 0 (total dose 3 μg). Further, the Survivors stood at 1 (total dose 30 μg), 0 (total dose 300 μg) and 0 (total dose 3 mg).

Consider `CNNC` [1,2-dimethylhydrazine, dihydrochloride], for which the “No. animals surviving after 6 days” value is reported as 6 (total dose 30 pg); 2 (total dose 300 pg); 3 (total dose 3 ng); 3 (total dose 30 ng); 5 (total dose 300 ng); 3 (total dose 3 μg). The “No. animals surviving after 6 days” value is 4 (total dose 30 μg), 6 (total dose 300 μg) and 3 (total dose 3 mg). Moreover, the Survivors reads like this: (total dose 30 pg) 1; (total dose 300 pg) 0; (total dose 3 ng) 0; (total dose 30 ng) 1; (total dose 300 ng) 0; (total dose 3 μg) 0. The Survivors (total dose 30 μg) is 0, the Survivors (total dose 300 μg) came to 0 and the Survivors (total dose 3 mg) is recorded as 0.

Regarding `CCC(C)=NNC(=N)N.O=[N+]([O-])O` [1-(sec-butylideneamino)guanidine, nitrate], the “No. animals surviving after 7 days” value reads like this: (total dose 3 ng) 0; (total dose 30 ng) 1; (total dose 300 ng) 3; (total dose 3 μg) 0; (total dose 30 μg) 2; (total dose 300 μg) 0. Also, the Survivors is, setting by setting: (total dose 3 ng) 0; (total dose 30 ng) 0; (total dose 300 ng) 2; (total dose 3 μg) 0; (total dose 30 μg) 2; (total dose 300 μg) 0.

Consider `C=CCNC(=S)NN=C1Cc2ccccc2C1` [2-Indanone, 4-allylthiosemicarbazone], for which the “No. animals surviving after 7 days” value by setting is: (total dose 30 pg) 4; (total dose 300 pg) 7; (total dose 3 ng) 4; (total dose 30 ng) 6; (total dose 300 ng) 6; (total dose 3 μg) 2. In addition, the “No. animals surviving after 7 days” value by setting is: (total dose 30 μg) 6; (total dose 300 μg) 2; (total dose 3 mg) 4. The compound further registered a Survivors (total dose 30 pg) of 0; a Survivors (total dose 300 pg) of 0; a Survivors (total dose 3 ng) of 0; a Survivors (total dose 30 ng) of 0; a Survivors (total dose 300 ng) of 0; a Survivors (total dose 3 μg) of 0. For the same compound, the Survivors by setting is: (total dose 30 μg) 0; (total dose 300 μg) 0; (total dose 3 mg) 1.

`NC(=S)NN=C1Cc2ccccc2C1` [2-indanone, thiosemicarbazone]: the “No. animals surviving after 5 days” value is 8 (total dose 30 pg); 8 (total dose 300 pg); 5 (total dose 3 ng); 9 (total dose 30 ng); 8 (total dose 300 ng); 8 (total dose 3 μg). The “No. animals surviving after 5 days” value runs as follows: (total dose 30 μg) 8; (total dose 300 μg) 6. This compound registered a Survivors (total dose 30 pg) of 1; a Survivors (total dose 300 pg) of 0; a Survivors (total dose 3 ng) of 0; a Survivors (total dose 30 ng) of 0; a Survivors (total dose 300 ng) of 1; a Survivors (total dose 3 μg) of 1. The same compound yielded a Survivors (total dose 30 μg) of 0 and a Survivors (total dose 300 μg) of 0.

For `CCCC(C)=NNC(N)=S` [2-pentanone, thiosemicarbazone], the “No. animals surviving after 6 days” value was 2 (total dose 30 pg); 2 (total dose 300 pg); 2 (total dose 3 ng); 2 (total dose 30 ng); 1 (total dose 300 ng); 1 (total dose 3 μg). In addition, the “No. animals surviving after 6 days” value reads like this: (total dose 30 μg) 1; (total dose 300 μg) 0. Besides, the Survivors reads like this: (total dose 30 pg) 0; (total dose 300 pg) 0; (total dose 3 ng) 0; (total dose 15 ng) 0; (total dose 22.5 ng) 0; (total dose 30 ng) 0. Also, the Survivors was 0 (total dose 75 ng); 0 (total dose 150 ng); 0 (total dose 225 ng); 0 (total dose 300 ng); 0 (total dose 750 ng); 0 (total dose 1.5 μg). The compound further gave a Survivors (total dose 2.25 μg) of 1, a Survivors (total dose 3 μg) of 0, a Survivors (total dose 30 μg) of 1 and a Survivors (total dose 300 μg) of 0. Further, the “No. animals surviving after 7 days” value is recorded as 3 (total dose 15 ng); 0 (total dose 22.5 ng); 1 (total dose 75 ng); 0 (total dose 150 ng); 3 (total dose 225 ng); 2 (total dose 750 ng). Also, the “No. animals surviving after 7 days” value is reported as 2 (total dose 1.5 μg) and 1 (total dose 2.25 μg).

For the compound `CCC(CC)=NNC(N)=S` [3-pentanone, thiosemicarbazone], the “No. animals surviving after 6 days” value reads like this: (total dose 30 pg) 2; (total dose 300 pg) 1; (total dose 3 ng) 3; (total dose 30 ng) 0; (total dose 300 ng) 3; (total dose 3 μg) 6. Further, the “No. animals surviving after 6 days” value is 7 (total dose 30 μg) and 4 (total dose 300 μg). Moreover, the Survivors (total dose 30 pg) amounted to 0; the Survivors (total dose 300 pg) stood at 0; the Survivors (total dose 3 ng) was determined as 0; the Survivors (total dose 30 ng) is listed as 0; the Survivors (total dose 300 ng) was found to be 0; the Survivors (total dose 3 μg) is recorded as 1. Also, the Survivors by setting is: (total dose 12 μg) 0; (total dose 18 μg) 1; (total dose 24 μg) 0; (total dose 30 μg) 0; (total dose 60 μg) 0; (total dose 90 μg) 0. For the same compound, the Survivors reads like this: (total dose 120 μg) 1; (total dose 150 μg) 1; (total dose 300 μg) 0. In addition, the “No. animals surviving after 7 days” value is, setting by setting: (total dose 12 μg) 1; (total dose 18 μg) 1; (total dose 24 μg) 0; (total dose 60 μg) 1; (total dose 90 μg) 3; (total dose 120 μg) 1. Also, the “No. animals surviving after 7 days” value (total dose 150 μg) was determined as 2.

Consider `CNN` [Methylhydrazine, methylhydrazine], for which the “No. animals surviving after 6 days” value (total dose 30 pg) came to 2; the “No. animals surviving after 6 days” value (total dose 300 pg) came out at 3; the “No. animals surviving after 6 days” value (total dose 3 ng) was found to be 3; the “No. animals surviving after 6 days” value (total dose 30 ng) came out at 4; the “No. animals surviving after 6 days” value (total dose 300 ng) is given as 1; the “No. animals surviving after 6 days” value (total dose 3 μg) turned out to be 3. Further, the “No. animals surviving after 6 days” value reads like this: (total dose 30 μg) 3; (total dose 300 μg) 1. Also, the Survivors came to 1 (total dose 30 pg); 0 (total dose 300 pg); 1 (total dose 3 ng); 1 (total dose 30 ng); 0 (total dose 300 ng); 0 (total dose 3 μg). In addition, the Survivors reads like this: (total dose 30 μg) 1; (total dose 300 μg) 0. Further, where the note is “total dose 3 mg”, the Toxicity result is listed as “Toxic; also recorded: Toxic?”.

For `O=C(CCNNC(=O)c1ccncc1)NCc1ccccc1` [Nialamide, nialamide, reference compound], the Survivors was 1 (total dose 400pg); 1 (total dose 4ng); 0 (total dose 40ng); 0 (total dose 400ng); 0 (total dose 4μg); 2 (total dose 400 μg). Also, for the setting “total dose 4 mg”, the Survivors is listed as 1.

Regarding `NC(N)=S` [Thiourea], the “No. animals surviving after 7 days” value by setting is: (total dose 30 pg) 2; (total dose 300 pg) 4; (total dose 3 ng) 3; (total dose 30 ng) 4; (total dose 300 ng) 2; (total dose 3 μg) 7. Also, the “No. animals surviving after 7 days” value runs as follows: (total dose 30 μg) 3; (total dose 300 μg) 6; (total dose 3 mg) 5. Also, the Survivors by setting is: (total dose 30 pg) 0; (total dose 300 pg) 0; (total dose 3 ng) 1; (total dose 30 ng) 0; (total dose 300 ng) 0; (total dose 3 μg) 0. For the same compound, the Survivors reads like this: (total dose 30 μg) 0; (total dose 300 μg) 1; (total dose 3 mg) 0.

The values above are taken from patent publication US4032659A (priority 1975, dated 1977).
